Measured values: patent publication US20100190723A1, “PREVENTIVE OR THERAPEUTIC COMPOSITION FOR LIVER DISEASE” (priority 2007, published 2010)
Square brackets hold non-standard residues; d marks the D form. Ends that are not written are not given here. pGlu = O=C1CC[C@@H](C(=O)O)N1

Tests used:
[1] = system: Hepatic Disorder Rat Model; experiment: Administration test using hepatic disorder rat model (D-galactosamine), oral peptide (Test Example 2); type: in vivo; settings: peptide 40 mg/kg orally, Wistar rats; for GOT: blood GOT level 24 hours after D-galactosamine 800 mg/kg i.p., water control 2180; for GPT: blood GPT level 24 hours after D-galactosamine 800 mg/kg i.p., water control 391
Procedure: (§1) Wistar rats (4- to 5-week old) were used for the experiment. Rats were preliminarily fed for a week with purified standard feeds and subjected to fasting for 4 hours. pyroGlu-Leu obtained in Production Example 2 and pyroGlu-Ile obtained in Production Example 3 were each dissolved in water at 10 mg/l ml, and the resulting solutions were administered intraperitoneally in amounts of 20 mg/kg each. D-galactosamine (Sigma) was administered intraperitoneally in an amount of 800 mg/kg 1 hour later. Rats were allowed to freely eat 4 hours after D-galactosamine administration. Each group consisted of 5 rats, and water was administered to the control group instead of the peptide of the present invention.
(§2) Blood was sampled from the rats 24 hours after D-galactosamine administration, and GOT and GPT levels in the blood were assayed to compare the degrees of hepatic disorders.
(§3) GOT and GPT levels were assayed in accordance with the JSCC standardization method (Hiroshi Miura, Japanese Journal of Clinical Medicine (Nippon Rinsho), 53-reprinted-266, 1995).
The test was carried out in the same manner as in Test Example 1. pyroGlu-Gln-Gln, pyroGlu-Gln, pyroGlu-Leu, or pyroGlu-Ile obtained in Production Example 5 was dissolved in water at 10 mg/l ml, and the resulting solution was administered orally to rats in amounts of 40 mg/kg.

[2] = system: Hepatic Disorder Rat Model; experiment: Administration test using hepatic disorder rat model (D-galactosamine), intraperitoneal peptide (Test Example 1); type: in vivo; settings: peptide 20 mg/kg intraperitoneally 1 hour before, Wistar rats; for GOT: blood GOT level 24 hours after D-galactosamine 800 mg/kg i.p., water control 391; for GPT: blood GPT level 24 hours after D-galactosamine 800 mg/kg i.p., water control 50
Procedure: as §1, §2, §3

| Substance | GOT [1] [IU/L] | GPT [1] [IU/L] | GOT [2] [IU/L] | GPT [2] [IU/L] |
| --- | --- | --- | --- | --- |
| [pGlu]-Gln | 509 | 124 |  |  |
| [pGlu]-Gln-Gln | 524 | 100 |  |  |
| [pGlu]-Ile | 491 | 98 | 314 | 45 |
| [pGlu]-Leu | 555 | 131 | 215 | 30 |
